Reference: patent US20250064789A1, “KETOAMIDE DERIVATIVES AND PHARMACEUTICAL USES THEREOF” (priority 2022, published 2025)

These compounds were tested against recombinant SARS-CoV-2 M^pro (Severe acute respiratory syndrome coronavirus 2 (2019-nCoV) (SARS-CoV-2), UniProt P0DTD1) (assay: Inhibition of SARS-CoV-2 M^pro enzyme activity (fluorescent substrate assay)). Conditions: inhibition of SARS-CoV-2 M^pro enzyme activity; values given in μM; read-out: IC50.
Type: biochemical
`C[C@@H](NC(=O)c1ccccn1)C(=O)N[C@H](Cc1ccccc1)C(=O)C(=O)NCc1ccccn1` [Compound 141] showed an IC50 of 1.16 ± 0.24 µM.
For `C[C@@H](NC(=O)c1cccnc1)C(=O)N[C@H](Cc1ccccc1)C(=O)C(=O)NCc1ccccn1` [Compound 142], the IC50 was 1.21 ± 0.89 µM.
With `CN(C(=O)C1CCC(F)(F)CC1)C1(C(=O)N[C@H](Cc2ccccc2)C(=O)C(=O)NCc2ccccn2)CC1` [Compound 167] the IC50 was 3.81 ± 0.17 µM.

Same assay, conditions: inhibition of SARS-CoV-2 M^pro enzyme activity; values in nM; read-out: IC50
In the case of `C[C@@H](NC(=O)C1(F)CCCCC1)C(=O)N[C@H](Cc1ccccc1)C(=O)C(=O)NCc1ccccn1` [Compound 128], the IC50 is reported as 0.0094 ± 0.0013 µM.
For `CC(C(=O)N[C@H](C)C(=O)N[C@H](Cc1ccccc1)C(=O)C(=O)NCc1ccccn1)C1CCCCC1` (stereo partly shown) [Compound 130], the IC50 was 0.0986 ± 0.0068 µM.
`C[C@@H](NC(=O)CC1CCS(=O)(=O)CC1)C(=O)N[C@H](Cc1ccccc1)C(=O)C(=O)NCc1ccccn1` [Compound 131] gave an IC50 of 0.0368 ± 0.0001 µM.
`C[C@@H](NC(=O)c1cnn(-c2ccccc2)c1)C(=O)N[C@H](Cc1ccccc1)C(=O)C(=O)NCc1ccccn1` [Compound 132] was tested, and the IC50 was 0.158 ± 0.0262 µM.
With `C[C@@H](NC(=O)[C@H]1CC[C@@H](NC(=O)OC(C)(C)C)CC1)C(=O)N[C@H](Cc1ccccc1)C(=O)C(=O)NCc1ccccn1` [Compound 133] the IC50 was 0.198 ± 0.0096 µM.
`C[C@@H](NC(=O)CC1CC(F)(F)C1)C(=O)N[C@H](Cc1ccccc1)C(=O)C(=O)NCc1ccccn1` [Compound 134] showed an IC50 of 0.0245 µM.
With `C[C@@H](NC(=O)CC1CCOCC1)C(=O)N[C@H](Cc1ccccc1)C(=O)C(=O)NCc1ccccn1` [Compound 135] the IC50 was 0.0573 ± 0.0053 µM.
With `C[C@@H](NC(=O)CC1CCOC(C)(C)C1)C(=O)N[C@H](Cc1ccccc1)C(=O)C(=O)NCc1ccccn1` (stereo partly shown) [Compound 136] the IC50 was 0.0965 ± 0.0022 µM.
`C[C@@H](NC(=O)c1ccccc1)C(=O)N[C@H](Cc1ccccc1)C(=O)C(=O)NCc1ccccn1` [Compound 137, N—((R)-1-(((R)-3,4-dioxo-1-phenyl-4-((pyridin-2-ylmethyl)amino)butan-2-yl)amino)-1-oxopropan-2-yl)benzamide] gave an IC50 of 0.0221 ± 0.0077 µM.
`C[C@@H](NC(=O)c1ccccc1F)C(=O)N[C@H](Cc1ccccc1)C(=O)C(=O)NCc1ccccn1` [Compound 138] was tested, and the IC50 was 0.0486 ± 0.0004 µM.
`C[C@@H](NC(=O)c1cccc(F)c1)C(=O)N[C@H](Cc1ccccc1)C(=O)C(=O)NCc1ccccn1` [Compound 139] was tested, and the IC50 was 0.0243 ± 0.0023 µM.
Compound `C[C@@H](NC(=O)c1ccc(F)cc1)C(=O)N[C@H](Cc1ccccc1)C(=O)C(=O)NCc1ccccn1` [Compound 140] has an IC50 of 0.0155 ± 0.001 µM.
With `C[C@@H](NC(=O)c1cccc(OC(F)(F)F)c1)C(=O)N[C@H](Cc1ccccc1)C(=O)C(=O)NCc1ccccn1` [Compound 143] the IC50 was 0.0164 ± 0.0015 µM.
`C[C@@H](NC(=O)c1ccc(Cl)cc1)C(=O)N[C@H](Cc1ccccc1)C(=O)C(=O)NCc1ccccn1` [Compound 144] showed an IC50 of 0.019 ± 0.0003 µM.
`C[C@@H](NC(=O)C1CCCCC1)C(=O)N[C@H](Cc1ccccc1)C(=O)C(=O)NCc1ccccn1` [Compound 146] gave an IC50 of 0.0123 ± 0.0002 µM.
Work on `C[C@@H](NC(=O)C1CCC(C(F)(F)F)CC1)C(=O)N[C@H](Cc1ccccc1)C(=O)C(=O)NCc1ccccn1` (stereo partly shown) [Compound 147] yielded an IC50 of 0.013 ± 0.0007 µM.
Compound `C[C@@H](NC(=O)COc1ccc(F)cc1)C(=O)N[C@H](Cc1ccccc1)C(=O)C(=O)NCc1ccccn1` [Compound 148] has an IC50 of 0.0117 ± 0.0024 µM.
Compound `C[C@H](C(=O)N[C@H](Cc1ccccc1)C(=O)C(=O)NCc1ccccn1)N(C)C(=O)c1ccc(F)cc1` [Compound 149] has an IC50 of 0.0364 ± 0.0074 µM.
In the case of `O=C(CNC(=O)[C@@H]1C[C@@H]2[C@H](C1)C2(F)F)N[C@H](Cc1ccccc1)C(=O)C(=O)NCc1ccccn1` [Compound 152], the IC50 is reported as 0.0187 ± 0.0006 µM.
`O=C(CNC(=O)c1cnccn1)N[C@H](Cc1ccccc1)C(=O)C(=O)NCc1ccccn1` [Compound 154] gave an IC50 of 0.193 ± 0.002 µM.
For `CN(CC(=O)N[C@H](Cc1ccccc1)C(=O)C(=O)NCc1ccccn1)C(=O)C1CCC(F)(F)CC1` [Compound 156], the IC50 was 0.0334 ± 0.0009 µM.
Work on `O=C(CCC1CCC(F)(F)CC1)NC1(C(=O)N[C@H](Cc2ccccc2)C(=O)C(=O)NCc2ccccn2)CC1` [Compound 157] yielded an IC50 of 0.0125 ± 0.0005 µM.
For `O=C(NCc1ccccn1)C(=O)[C@@H](Cc1ccccc1)NC(=O)C1(NC(=O)c2cnccn2)CC1` [Compound 158], the IC50 was 0.252 ± 0.009 µM.
For `O=C(NCc1ccccn1)C(=O)[C@@H](Cc1ccccc1)NC(=O)C1(NC(=O)C2CCC(F)(F)CC2)CC1` [Compound 159], the IC50 was 0.0215 ± 0.0057 µM.
In the case of `O=C(CC1CCC(F)(F)CC1)NC1(C(=O)N[C@H](Cc2ccccc2)C(=O)C(=O)NCc2ccccn2)CC1` [Compound 160], the IC50 is reported as 0.0135 ± 0.0035 µM.
Work on `O=C(NCc1ccccn1)C(=O)[C@@H](Cc1ccccc1)NC(=O)C1(NC(=O)[C@@H]2C[C@@H]3[C@H](C2)C3(F)F)CC1` [Compound 161] yielded an IC50 of 0.0153 ± 0.0016 µM.
`O=C(NCc1ccccn1)C(=O)[C@@H](Cc1ccccc1)NC(=O)C1(NC(=O)[C@H]2CC[C@@H](F)CC2)CC1` [Compound 162] gave an IC50 of 0.0175 ± 0.0008 µM.
In the case of `O=C(NCc1ccccn1)C(=O)[C@@H](Cc1ccccc1)NC(=O)C1(NC(=O)c2cc(Br)cc(OC(F)(F)F)c2)CC1` [Compound 163], the IC50 is reported as 0.0208 ± 0.0007 µM.
For `O=C(Cc1cc(OC(F)(F)F)ccc1F)NC1(C(=O)N[C@H](Cc2ccccc2)C(=O)C(=O)NCc2ccccn2)CC1` [Compound 164], the IC50 was 0.0132 ± 0.0005 µM.
Compound `O=C(NCc1ccccn1)C(=O)[C@@H](Cc1ccccc1)NC(=O)C1(NC(=O)c2cc(OC(F)(F)F)ccc2F)CC1` [Compound 165] has an IC50 of 0.0203 ± 0.0002 µM.
With `O=C(NCc1ccccn1)C(=O)[C@@H](Cc1ccccc1)NC(=O)C1(NC(=O)C2CC23CCC(F)(F)CC3)CC1` (stereo partly shown) [Compound 166] the IC50 was 0.0233 ± 0.0008 µM.
For `O=C(NCc1ccccn1)C(=O)[C@@H](Cc1ccccc1)NC(=O)C1(NC(=O)C2(F)CCCCC2)CC1` [Compound 168], the IC50 was 0.0107 ± 0.0004 µM.
`O=C(NCc1ccccn1)C(=O)[C@@H](Cc1ccccc1)NC(=O)C1(NC(=O)C2CCC(F)(F)CC2)CC1` [Compound 169] was tested, and the IC50 was 0.0226 ± 0.0037 µM.
With `O=C(NCc1ccccn1)C(=O)[C@@H](Cc1ccccc1)NC(=O)C1(NC(=O)c2ccc(F)cc2)CC1` [Compound 170] the IC50 was 0.0194 ± 0.0007 µM.
Work on `CC(C)(NC(=O)CCC1CCC(F)(F)CC1)C(=O)N[C@H](Cc1ccccc1)C(=O)C(=O)NCc1ccccn1` [Compound 171] yielded an IC50 of 0.0089 ± 0.0004 µM.
Work on `CC(C)(NC(=O)CC1CCC(F)(F)CC1)C(=O)N[C@H](Cc1ccccc1)C(=O)C(=O)NCc1ccccn1` [Compound 173] yielded an IC50 of 0.0103 ± 0.0001 µM.
`CC(C)(NC(=O)[C@H]1CC[C@@H](F)CC1)C(=O)N[C@H](Cc1ccccc1)C(=O)C(=O)NCc1ccccn1` [Compound 175] was tested, and the IC50 was 0.0473 ± 0.0028 µM.
`CC(C)(NC(=O)C1CC12CCC(F)(F)CC2)C(=O)N[C@H](Cc1ccccc1)C(=O)C(=O)NCc1ccccn1` (stereo partly shown) [Compound 176] was tested, and the IC50 was 0.0159 µM.
`CC(C)(NC(=O)[C@@H](NC(=O)c1cnccn1)C1CCCCC1)C(=O)N[C@H](Cc1ccccc1)C(=O)C(=O)NCc1ccccn1` [Compound 178] was tested, and the IC50 was 0.0175 ± 0.0005 µM.
`CC(C)(NC(=O)C(=O)c1ccccc1)C(=O)N[C@H](Cc1ccccc1)C(=O)C(=O)NCc1ccccn1` [Compound 179] was tested, and the IC50 was 0.0145 ± 0.0019 µM.
`CC(C)(NC(=O)[C@H](NC(=O)c1cnccn1)C1CCCCC1)C(=O)N[C@H](Cc1ccccc1)C(=O)C(=O)NCc1ccccn1` [Compound 180] showed an IC50 of 0.0318 ± 0.0009 µM.
Compound `CC(C)(NC(=O)c1cc(Cl)cc(OC(F)(F)F)c1)C(=O)N[C@H](Cc1ccccc1)C(=O)C(=O)NCc1ccccn1` [Compound 181] has an IC50 of 0.0166 ± 0.0003 µM.
For `CC(C)(NC(=O)c1ccc2c(c1)OC(F)(F)O2)C(=O)N[C@H](Cc1ccccc1)C(=O)C(=O)NCc1ccccn1` [Compound 182], the IC50 was 0.0224 ± 0.0005 µM.
